Laboratory results reported in patent US20150299233A1, “COMPOSITIONS AND METHODS COMPRISING RHENIUM FOR THE TREATMENT OF CANCERS” (Massachusetts Institute of Technology, priority 2014, published 2015).

Assays:
C57BL/6 mice = experiment: In vivo acute toxicity in mice; settings: single i.p. doses 3-36 mg/kg in saline, monitored 6 days
Experimental: In Vivo Toxicity and Stability in Whole Human Blood. Given the impressive in vitro data acquired for 1 and 2, an in vivo study was conducted with C57BL/6 mice to determine acute toxicity and possible side effects. Single doses of 1 and 2 (3, 7, 11,15, 20, and 36 mg/kg) in saline were administered by intraperitoneal injection. The mice were then monitored for signs of pain, distress, and weight loss for 6 days post-treatment. […] The pharmacological toxicity profile of 1 and 2 is very appealing in terms of further preclinical studies.

A549 cells [1] = experiment: Intracellular ROS assay (DCFH-DA, flow cytometry); format: cell-based, human; settings: for induced ROS production in the presence of necrostatin-1: 20 μM for 12 h with necrostatin-1 60 μM; for intracellular ROS versus untreated control cells: 1, 2, shikonin 20 μM for 12 h, H2O2 1 mM for 1 h
Experimental: Characterization of Necroptotic Features. Having established that necrosome formation is a determinant of 1 and 2 activity, additional studies were performed to understand the cascade of events leading from necrosome formation to cell death. Necrosomes generate abnormally high levels of mitochondrial ROS, leading to ATP depletion and eventual degradation of the mitochondrial membrane potential. With this fact in mind, intracellular ROS production was quantified by flow cytometry using 6-carboxy-2′,7′-dichlorodihydrofluorescein diacetate (DCFH-DA), a well-established ROS indicator.
In FIG. 2: (A) Representative histograms displaying the green fluorescence emitted by DCFH-DA-stained A549 cells (i) and A549 cells treated with 1(20 μM for 12 h) (iii) or 1 (20 μM for 12 h) with nectrostatin-1 (60 μM for 12 h) (ii). (B) Representative histograms displaying the green fluorescence emitted by DCFH-DA-stained A549 cells (i) and A549 cells treated with 2 (20 μM for 12 h) (iii) or 2 (20 μM for 12 h) with nectrostatin-1 (60 μM for 12 h) (ii). (C) Representative histograms displaying the green fluorescence emitted by DCFH-DA-stained A549 cells (i) and A549 cells treated withH2O2 (1mM for 1 h) (iii). (D) Representative histograms displaying the green fluorescence emitted by DCFH-DA-stained A549 cells (i) and A549 cells treated with shikonin (20 μM for 12 h) (iii).
Intracellular ROS Assay. Untreated and treated A549 cells (1.5×10^6 cells/well) grown in six-well plates were incubated with 6-carboxy-2′,7′-dichlorodihydrofluorescein diacetate (20 μM) for 30 min. The cells were then washed with PBS (1 mL x 3), harvested, and analyzed by using a FACSCalibur-HTS flow cytometer (BD Biosciences) (20 000 events per sample were acquired). The FL1 channel was used to assess intracellular ROS levels. Cell populations were analyzed using the FlowJo software (Tree Star).

[2] = system: HCT116 p53+/+ and HCT116 p53−/− cells; experiment: Cytotoxicity in HCT116 p53+/+ versus p53-/- cells; format: cell-based; settings: 72 h, FIG. 3B
Experimental: (PARP-1). PARP-1 is a nuclear enzyme that is involved in DNA repair and transcriptional regulation. DNA damage can trigger PARP-1 activity, resulting in ATP and NAD depletion and bioenergetics- mediated cell death. To determine whether PARP-1 activity is a factor in 1- and 2-mediated cell death, cytotoxicity assays were conducted with wild-type mouse embryonic fibroblast cells (MEFs PARP-1+/+) and the corresponding PARP-1-null cells (MEFs PARP-1−/−). […] Recently, p53 has also been reported to play a role in necroptosis. p53 induces cathepsin Q, a lysosomal protease that cooperates with ROS to execute necrosis. To investigate whether p53 might play a role in 1- and 2-mediated necroptosis, cytotoxicity studies were conducted with HCT116 p53^+/+ nd HCT116 p53^−/− cells.
Cell Cycle Analysis. To gain a more complete understanding of the cellular response evoked, DNA-flow cytometric studies were conducted to determine the effect of 1 and 2 on the cell cycle. A549 cells were treated with 1 or 2 (2 μM), and the cell cycle was determined over the course of 72 h. […] Upon further incubation (72 h), large populations of cell debris were detected (32%), indicative of cell death. […]
Cytotoxicity MTT Assay. […] The absorbance of the solution wells was read at 550 nm. Absorbance values were normalized to DMSO-containing control wells and plotted as the concentration of test compound versus % cell viability. […]

[3] = system: MDA-MB-231 (breast adenocarcinoma); experiment: MTT cytotoxicity assay, MDA-MB-231 cells; format: cell-based, human; settings: Table 2; cisplatin-resistant cell line; 72 h exposure; read-out: IC50 MDA-M8-231 breast adenocarcinoma
A549 cells [4] = experiment: JC-1 mitochondrial membrane potential assay; format: cell-based, human; settings: for JC-1 green fluorescence versus untreated cells (mitochondrial membrane disruption): 1, 2, shikonin 20 μM for 12 h, CCCP 5 μM for 12 h
Experimental: The effect of 1 and 2 on the mitochondrial membrane potential was assessed by flow cytometry, using the JC-1 assay (5,5′,6,6′-tetrachloro-1,1′,3,3′-tetraethylbenzimidazolyl carbo-cyanine iodide). JC-1 is a cationic lipophilic dye that localizes in the mitochondria of healthy cells as red-emitting aggregates. If the mitochondrial membrane potential is disrupted, JC-1 forms green-emitting monomers. […] This could explain the high residual toxicity (>1 μM) observed for A549 cells co-incubated with the rhenium complexes (1 and 2) and necrostatin-1 (FIG. 1B).
JC-1 Assay. The JC-1 Mitochondrial Membrane Potential Assay Kit (Cayman) was used. The manufacturer's protocol was followed to carry out this experiment. Briefly, to untreated and treated A549 cells (1.5×10^6 cells/well) grown in six-well plates was added the JC-1 staining solution (100 μL/mL of cell media). The cells were incubated for 30 min, harvested, and analyzed by using the FACSCalibur-HTS flow cytometer (BD Biosciences) (20 000 events per sample were acquired).The FL1 channel was used to assess mitochondrial depolarization. Cell populations were analyzed using the FlowJo software (Tree Star).

| SMILES | acute toxicity in mice, gauged by weight loss (C57BL/6 mice) | induced ROS production in the presence of necrostatin-1 (A549 cells [1]) | intracellular ROS versus untreated control cells (A549 cells [1]) | potency in HCT116 p53+/+ compared with HCT116 p53−/− [2] | IC50 [3] [nM] | induced mitochondrial membrane depletion with necrostatin-1 (A549 cells [4]) | JC-1 green fluorescence versus untreated cells (mitochondrial membrane disruption) (A549 cells [4]) |
| --- | --- | --- | --- | --- | --- | --- | --- |
| C[O][Re](=[O])([Cl])[Cl].c1ccc(-c2ccnc3c2ccc2c(-c4ccccc4)ccnc23)cc1 [Compound 1, [ReO(OMe)(4,7-diphenyl-1,10-phenanthroline)-Cl2]] | no toxicity | attenuated | markedly higher levels of ROS | statistically similar | 475 ± 161 | amplified | increased green fluorescence |
| C[O][Re-2]1(=[O])([Cl])([Cl])[n+]2cc(C)c(C)c3ccc4c(C)c(C)c[n+]1c4c32 [Compound 2, [ReO(OMe)(3,4,7,8-tetramethyl-1,10-phenanthroline)Cl2]] | no toxicity | attenuated | markedly higher levels of ROS | statistically similar | 1740 ± 275 | amplified | increased green fluorescence |
